Data on 14 molecules can be found in ChEMBL document CHEMBL1132750, “The synthesis and biological evaluation of a novel series of phthalazine PDE4 inhibitors I” (Bioorg Med Chem Lett, 2000).

One assay is filed under the species Homo sapiens. Kind of assay: Inhibition of TNF alpha synthesis in human monocytes. Type of assay: functional.
The target of assay [1] is T1, Phosphodiesterase 4 (Homo sapiens, UniProt P27815+Q08499+Q07343+Q08493). The assay can be described thus: Inhibition of rolipram binding to PDE4 from human neutrophils. The assay is classed as protein assay.
Assay [2] deals with T1, Phosphodiesterase 4. Kind of assay: Inhibition of Phosphodiesterase 4 from human neutrophils. The assay is classed as protein assay.
Assay [3] has as its target T1, Phosphodiesterase 4. Kind of assay: Inhibition of Phosphodiesterase 4 from human neutrophils at 10e-7 M. Type of assay: protein assay.
For the next assay, the species on record is Rattus norvegicus. Kind of assay: Increased acid secretion in isolated whole rat stomach. Type of assay: functional.
Another assay relates to Canis familiaris. Kind of assay: Emetic effect in dogs after intravenous dose. The assay is classed as functional. Conditions: Canis lupus familiaris.

Take `COc1ccc2c(Cc3c(Cl)cncc3Cl)nncc2c1CCCCCc1ccccc1`: the IC50 was 103 nM in the assay filed under Homo sapiens and 30 nM against Phosphodiesterase 4 [2]. The same molecule had a Ki at Phosphodiesterase 4 [1] of 320 nM.
As for `COc1cc2cnnc(Nc3c(Cl)cncc3Cl)c2cc1OC1CCCC1`, the inhibition on Phosphodiesterase 4 [3] was 7%.
In the case of `FC(F)Oc1ccc2c(Cc3c(Cl)cncc3Cl)nncc2c1OC1CCCC1`, the IC50 in the assay filed under Homo sapiens was found to be 167 nM; against Phosphodiesterase 4 [2], 39 nM. The molecule further showed a Ki on Phosphodiesterase 4 [1] of 46 nM.
On the same counts, the results for `COc1ccc2c(Cc3c(Cl)cncc3Cl)n[n+]([O-])cc2c1OC1CCCC1` are 139 nM, 42 nM and 121 nM.
Regarding `COc1cc2cnnc(Cc3c(Cl)cncc3Cl)c2cc1OC1CCCC1`, the IC50 at Phosphodiesterase 4 [2] is reported as 186 nM.
At Phosphodiesterase 4 [1], `COc1ccc2c(Cc3c(Cl)cncc3Cl)nncc2c1OC1CCOC1` (centres undefined) registered a Ki of 286 nM. The molecule also registered an IC50 against Phosphodiesterase 4 [2] of 153 nM.
With `COc1ccc2c(Nc3c(Cl)cncc3Cl)nncc2c1OC1CCCC1`, the results for the IC50 in the assay listed under Homo sapiens and at Phosphodiesterase 4 [2] were 187 nM and 59 nM, respectively. Further, the Ki on Phosphodiesterase 4 [1] is 95 nM.
`COc1ccc2c(Cc3c(Cl)cncc3Cl)nncc2c1OCCCCCc1ccccc1`: the half-inhibitory concentration (IC50) in the assay filed under Homo sapiens came out at 83 nM; at Phosphodiesterase 4 [2], 57 nM. On Phosphodiesterase 4 [1], this molecule came in with a Ki of 13 nM.
In the case of `COc1ccc2c(Cc3c(Cl)cncc3Cl)nncc2c1/C=C/CCCc1ccccc1`, the IC50 in the assay filed under Homo sapiens worked out at 52 nM; at Phosphodiesterase 4 [2], 19 nM. Besides, the Ki at Phosphodiesterase 4 [1] turned out to be 164 nM.
As to `COc1ccc2c(Cc3c(Cl)cncc3Cl)nncc2c1OC1CCCC1`, the results for the IC50 in the assay filed under Rattus norvegicus, in the assay listed under Homo sapiens and against Phosphodiesterase 4 [2] were 7000 nM, 254 nM and 53 nM, respectively. The ED50 in the assay on Canis familiaris is greater than 10 µmol/kg. Besides, the Ki on Phosphodiesterase 4 [1] is 149 nM.
For the molecule `COc1ccc(C(=O)Nc2c(Cl)cncc2Cl)cc1OC1CCCC1`, the IC50 was 70 nM in the assay filed under Rattus norvegicus and 1.3 nM in the assay listed under Homo sapiens. Moreover, in the assay on Canis familiaris, the ED50 came to 1 µmol/kg.
With `COc1ccc(C2CNC(=O)C2)cc1OC1CCCC1` (centres undefined) [ROLIPRAM], the IC50 in the assay listed under Rattus norvegicus stood at 40 nM; in the assay listed under Homo sapiens it was 225 nM. Further, the ED50 in the assay with Canis familiaris amounted to 0.3 µmol/kg.
As to `COc1ccc2c(Cc3c(Cl)cncc3Cl)nncc2c1C#CCCCc1ccccc1`, the IC50 came out at 30 nM in the assay filed under Homo sapiens and 10 nM on Phosphodiesterase 4 [2]. The molecule also yielded a Ki on Phosphodiesterase 4 [1] of 71 nM.
On the same counts, the results for `COc1ccc2c(Cc3c(Cl)cncc3Cl)nncc2c1OC1Cc2ccccc2C1` are 252 nM, 30 nM and 16 nM.

As a reminder, the IC50 is the concentration that inhibits the measured activity by half. High values mean a need for much substance, low ones inhibition by little substance. The Ki is the equilibrium dissociation constant of an inhibitor or competing ligand from its target. Read a high Ki as a looser hold on the target. The inhibition is the relative decrease from the control value, in per cent. Usually ED50 stands for the dose that gives a 50% effect, or the effect in half of the subjects.
